≈ marks a conversion by molar mass, not a printed value.
Assays:
Format in all cases: functional
MOLT-4 = experiment: Anticancer activity against Homo sapiens (human) MOLT4 cells after 48 hr by SRB assay; conditions: MOLT-4, 48 h
786-0 = experiment: Growth inhibition of Homo sapiens (human) 786-0 cells at 10 uM after 48 hr by SRB assay; conditions: 786-0, 48 h, read-out: GI
UACC-257 = experiment: Anticancer activity against Homo sapiens (human) UACC257 cells after 48 hr by SRB assay; conditions: UACC-257, 48 h
A549 = experiment: Growth inhibition of Homo sapiens (human) A549/ATCC cells at 10 uM after 48 hr by SRB assay; conditions: A549, 48 h, read-out: GI
MDA-MB-231 = experiment: Anticancer activity against Homo sapiens (human) MDA-MB-231/ATCC cells after 48 hr by SRB assay; conditions: MDA-MB-231, 48 h
OVCAR-8 = experiment: Anticancer activity against Homo sapiens (human) OVCAR8 cells after 48 hr by SRB assay; conditions: OVCAR-8, 48 h
SNB-75 = experiment: Anticancer activity against Homo sapiens (human) SNB75 cells after 48 hr by SRB assay; conditions: SNB-75, 48 h
Malme-3M [1] = experiment: Growth inhibition of Homo sapiens (human) MALME-3M cells at 10 uM after 48 hr by SRB assay; conditions: read-out: GI
SW-620 = experiment: Growth inhibition of Homo sapiens (human) SW620 cells at 10 uM after 48 hr by SRB assay; conditions: SW-620, 48 h, read-out: GI
RXF 393 [2] = experiment: Anticancer activity against Homo sapiens (human) RXF393 cells after 48 hr by SRB assay; conditions: RXF 393, 48 h
COLO 205 = experiment: Anticancer activity against Homo sapiens (human) COLO205 cells after 48 hr by SRB assay; conditions: COLO 205, 48 h
Pseudomonas aeruginosa = experiment: Antimicrobial activity against Pseudomonas aeruginosa ATCC 10145 after 48 hr by two-fold serial broth dilution method; conditions: ATCC 10145, 48 h
HCT-15 = experiment: Anticancer activity against Homo sapiens (human) HCT15 cells after 48 hr by SRB assay; conditions: HCT-15, 48 h
T47D = experiment: Growth inhibition of Homo sapiens (human) T47D cells at 10 uM after 48 hr by SRB assay; conditions: read-out: GI
SF-295 = experiment: Anticancer activity against Homo sapiens (human) SF295 cells after 48 hr by SRB assay; conditions: SF-295, 48 h
LOX IMVI = experiment: Anticancer activity against Homo sapiens (human) LOXIMVI cells after 48 hr by SRB assay
CAKI-1 = experiment: Anticancer activity against Homo sapiens (human) CAKI-1 cells after 48 hr by SRB assay; conditions: CAKI-1, 48 h
RXF 393 [3] = experiment: Growth inhibition of Homo sapiens (human) RXF393 cells at 10 uM after 48 hr by SRB assay; conditions: RXF 393, 48 h, read-out: GI
DU-145 = experiment: Anticancer activity against Homo sapiens (human) DU145 cells after 48 hr by SRB assay; conditions: DU-145, 48 h
Malme-3M [4] = experiment: Anticancer activity against Homo sapiens (human) MALME-3M cells after 48 hr by SRB assay
SN12C = experiment: Growth inhibition of Homo sapiens (human) SN12C cells at 10 uM after 48 hr by SRB assay; conditions: read-out: GI
A498 = experiment: Anticancer activity against Homo sapiens (human) A498 cells after 48 hr by SRB assay; conditions: A498, 48 h
EKVX = experiment: Anticancer activity against Homo sapiens (human) EKVX cells after 48 hr by SRB assay
Bacillus subtilis = experiment: Antimicrobial activity against Bacillus subtilis ATCC 6633 after 48 hr by two-fold serial broth dilution method; conditions: ATCC 6633, 48 h
Candida albicans = experiment: Antimicrobial activity against Candida albicans DSM 70014 after 48 hr by two-fold serial broth dilution method; conditions: DSM 70014, 48 h
SF-539 = experiment: Anticancer activity against Homo sapiens (human) SF539 cells after 48 hr by SRB assay; conditions: SF-539, 48 h
OVCAR-5 = experiment: Anticancer activity against Homo sapiens (human) OVCAR5 cells after 48 hr by SRB assay; conditions: OVCAR-5, 48 h
[5] = read-out: LC50 (the source's name)

## COc1ccc(OC)c(/C=C/c2nnc(Nc3ccc(Cl)cc3)o2)c1
MOLT-4
  GI50: > 100 µM
  TGI: > 100 µM
MOLT-4; [5]
  CC50: > 100 µM
786-0
  inhibition of growth at 10 µM: 72.1%
UACC-257
  GI50: 21.3 µM
  LC50 (50% lethal concentration): > 100 µM
  TGI: > 100 µM
A549
  inhibition of growth at 10 µM: 59.8%
MDA-MB-231
  GI50: 5.23 µM
  TGI: 53.1 µM
MDA-MB-231; [5]
  CC50: > 100 µM
OVCAR-8
  GI50: 4.91 µM
  LC50: 76.4 µM
  TGI: 21 µM
SNB-75
  GI50: 2.26 µM
  TGI: 7.94 µM
SNB-75; [5]
  CC50: > 100 µM
Malme-3M [1]
  inhibition of growth at 10 µM: 58.5%
SW-620
  inhibition of growth at 10 µM: 33.3%
RXF 393 [2]
  GI50: 2.71 µM
  LC50: 56.1 µM
  TGI: 7.92 µM
COLO 205
  GI50: 16.6 µM
  TGI: > 100 µM
COLO 205; [5]
  CC50: > 100 µM
Pseudomonas aeruginosa
  MBC: 100 µg/mL (≈ 279 µM)
  MIC: 100 µg/mL (≈ 279 µM)
HCT-15
  GI50: 34.1 µM
  TGI: > 100 µM
HCT-15; [5]
  CC50: > 100 µM
T47D
  inhibition of growth at 10 µM: 105%
SF-295
  GI50: 6.15 µM
  TGI: 64.5 µM
SF-295; [5]
  CC50: > 100 µM
LOX IMVI
  GI50: 7.91 µM
  TGI: > 100 µM
LOX IMVI; [5]
  CC50: > 100 µM
CAKI-1
  GI50: 6.02 µM
  TGI: > 100 µM
CAKI-1; [5]
  CC50: > 100 µM
RXF 393 [3]
  inhibition of growth at 10 µM: 43.7%
DU-145
  GI50: 11.4 µM
  TGI: 36.9 µM
DU-145; [5]
  CC50: > 100 µM
Malme-3M [4]
  GI50: 9.87 µM
  TGI: 52.4 µM
Malme-3M [4]; [5]
  CC50: > 100 µM
SN12C
  inhibition of growth at 10 µM: 55.1%
A498
  GI50: 1.87 µM
  LC50: > 100 µM
  TGI: 7.76 µM
EKVX
  GI50: 40.5 µM
  TGI: > 100 µM
EKVX; [5]
  CC50: > 100 µM
Bacillus subtilis
  MBC: 100 µg/mL (≈ 279 µM)
  MIC: 100 µg/mL (≈ 279 µM)
Candida albicans
  MFC: 50 µg/mL (≈ 140 µM)
  MIC: 50 µg/mL (≈ 140 µM)
SF-539
  GI50: 11.8 µM
  TGI: 60.5 µM
SF-539; [5]
  CC50: > 100 µM
OVCAR-5
  GI50: 32.5 µM
  TGI: > 100 µM
OVCAR-5; [5]
  CC50: > 100 µM
